Laboratory results as given in patent US12121510B2 (Cedars-Sinai Medical Center, priority 2016, dated 2024).

Tests used:
[1] = tested on: Namalwa human lymphoma xenograft tumors; experiment: Immunohistochemical staining of xenograft tumors; type: in vivo; conditions: Namalwa xenograft tumors of mice
Text: (§1) These normal kidney and liver tissues were obtained from mice harbored with human Burkitt's lymphoma.

mouse kidney = experiment: Kidney histopathology (hematoxylin and eosin); type: in vivo; conditions: normal kidney of mice implanted with kidney tumors
[2] = tested on: normal mouse kidney and liver; experiment: Immunohistochemical staining of normal kidney and liver; type: in vivo; conditions: mice harbored with human Burkitt's lymphoma
Text: as §1

[3] = tested on: PARP, Caspase 9 and p53 in Caki-1 cells; experiment: Western blot of apoptosis related proteins; type: cell-based, human
Text: Results also confirm elevated expression of p53 (a tumor suppressor) in human kidney cancer Caki cells (see panel D in FIG. 9).

Caki-1 = experiment: Renal cancer cell growth IC50 (crystal violet); type: cell-based, human; conditions: Example 11
Text: Exemplary Embodiments are generally performed as follows, unless otherwise noted. Simvastatin is purchased from Ark Pharm, Inc. (Arlington Heights, IL). Cisplatin (CIS) is purchased from MedKoo Biosciences, Inc. (Chapel Hill, NC). Dihydroartemisinin is purchased from TCI America (Portland, OR). All other chemicals and reagents are purchased from standard sources such as Sigma-Aldrich and/or VWR and are of highest quality available. Puromycin dihydrochloride was purchased from Alfa Aesar (Tewksbury, MA). Deionized water ([…]) used for making solutions is obtained from Milli-Q Direct Ultrapure Water System from Millipore (Billerica, MA, USA). All intermediates are characterized by 1H NMR and mass analysis and the purity of compounds are analyzed by HPLC. 1H NMR data are collected on Bruker 400 MHz spectrometers using standard parameters; chemical shifts are reported in ppm (δ) in reference to residual non-deuterated solvent. ESI mass spectroscopy analysis is performed using a Thermo Fisher LTQ Orbitrap Elite system. IC50 is the half maximal inhibitory concentration and determined is determined by crystal violet assay unless otherwise noted.
(§2) The crystal violet assay is performed as follows, unless otherwise noted. Cell lines are supplemented with RPMI 1640 medium, 10% fetal bovine serum, 1% PenStrep, and placed in a humidified atmosphere containing 5% CO2 at 37° C. 5,000 cells/well renal cancer cells and 10,000 cells/well lymphoma cells are seeded in 96 well plates in 100 microliter medium/per well for 24 h. […] Renal cancer cells are fixed with 3.7% paraformaldehyde for 15 minutes and are stained with Crystal violet solution (0.5% in 25% methanol) for 30 minutes. After rinsing with water cell layers are dried and decolorized with Sorenson citrate with shaking for 20 minutes. Light absorption of the extracted supernatant is read at 595 nm. Lymphoma cell growth was evaluated using MTT and cells are incubated for 4 hours. 100 microliters of isopropanol is added, and the extracted supernatant fraction is read at absorption maximum of 595 nm.
Standard cell culture conditions typically are RPMI 1640 medium, 10% fetal bovine serum, 1% PenStrep, and are performed in a humidified atmosphere containing 5% CO2 at 37° C. Generally, 5,000 cells/well-10,000 cells/well are seeded in 96 well plates in 100 microliter medium/per well for 24 h, or as described in Example 16, unless otherwise noted. Certain cells require specialized media, growth factors, antibiotics, or culture condition adjustments, as will be apparent to a person of ordinary skill in the art.
as §2, with “Cell” for “The crystal violet assay is performed as follows, unless otherwise noted. Cell”, “cultured as follows. […]” for “supplemented with RPMI 1640 medium, 10% fetal bovine serum, 1% PenStrep, and placed in a humidified atmosphere containing 5% CO2 at 37° C.”, “is” for “was”

[4] = tested on: caspase-3 and-7 activities in Caki-1 cells; experiment: CaspaseGlo 3/7 luminescent apoptosis assay; type: cell-based, human; conditions: 24 hours after treatment
Text: Caspase-Glo® 3/7 Assay (Promega) is a homogeneous, luminescent assay that measures caspase-3 and-7 activities that provides a luminogenic caspase-3/7 substrate, which contains the tetrapeptide sequence DEVD, in a reagent optimized for caspase activity, luciferase activity and cell lysis. A single Caspase-Glo 3/7 Reagent in an “add-mix measure” format results in cell lysis, followed by caspase cleavage of the substrate and generation of a “glow-type” luminescent signal, produced by luciferase. Luminescence is proportional to the amount of caspase activity present. Caspase-Glo® 3/7 Reagent is prepared, mixed and the reagent and the 96-well plate containing cells are equilibrated to room temperature. […] The plate is incubated at room temperature for 30 minutes to 3 hours, depending upon the cell culture system (optimal incubation period determined empirically). Luminescence of each sample is measured in a plate-reading luminometer. […]
B-cell lymphoma cells (Namalwa) are cultured in RPMI 1640, 10% fetal bovine serum, 1% PenStrep, and placed in a humidified atmosphere containing 5% CO2 at 37° C. […] 100 microliters of Caspase-Glo 3/7 assay is added and luminescence is then read. […] 100 microliters of Caspase-Glo 3/7 assay is added and luminescence is then read.

CC1(C)C(/C=C/C2=C(Cl)C(=C/C=C3/N(CCCCCC(=O)[O][Pt]([NH2])([NH2])([OH])([Cl])[Cl])c4ccccc4C3(C)C)/CCC2)=[N+](CCCCS(=O)(=O)[O-])c2ccccc21 [DZ-CIS ester]
Apoptosis in xenograft tumors (cleaved caspase-3 and M30) [1]: increased apoptosis | Cell proliferation in xenograft tumors (Ki67) [1]: decreased cell proliferation | Kidney damage, histopathology (mouse kidney): protects from more severe kidney damage | Apoptosis markers (cleaved caspas-3 and M30) / damage in normal kidney and liver [2]: protects normal kidney and liver from damage by CIS | Expression of apoptosis related proteins PARP, Caspase 9 and p53 [3]: induces elevation of apoptosis related proteins | In vitro growth of Caki-1 (Caki-1): inhibited by DZ-CIS | Level of apoptosis, CaspaseGlo 3/7 [4]: increased apoptosis
